The numbers were not newly measured in US20120219529A1, “Silver ion compositions of pectins” (George H. Scherr Trust, priority 2011, published 2012), which cites them from elsewhere.

Consider `[Ag+].[Ag+].[O-2]` [Ag2O], for which the “solubility in water” value is given as “insoluble in water”.
